Results on one compound are retold here after patent US20160313301A1, “METHOD FOR PREDICTING ANTITUMOR EFFICACY OF HSP90 INHIBITOR IN CANCER TREATMENT” (NIPPON KAYAKU KABUSHIKI KAISHA, priority 2013, published 2016).

SMILES strings stand for the structures.

What all share (format): in vivo
The test system of test [1] is human breast cancer cells JIMT-1. In words: Anti-tumor test in mice transplanted subcutaneously with tumor (JIMT-1). The note with it: JIMT-1 s.c. in mice; 125 mg/kg tail vein three times at 7 day intervals. The procedure:
(§1) Human ovarian cancer cell lines OC-10-JCK, OC-11-JCK, and TOGY-18, and a human breast cancer cell line MC-19-JCK were obtained from Central Institute for Experimental Animals. Cryopreserved tumor pieces were thawed, and then OC-10-JCK, OC-11-JCK, and MC-19-JCK were transplanted subcutaneously to SCID mice, while TOGY-18 was transplanted subcutaneously to nude mice. After the tumors were grown, the tumors were removed and cut into tumor pieces. The tumor pieces were transplanted subcutaneously to SCID mice or nude mice with trocars. The tumors were maintained by repeated transplantation in the same manner as described above to prepare tumors to be transplanted. Human ovarian cancer cell lines ES-2, SK-OV-3, OV-90, and TOV-21G, and a human lung cancer cell line NCI-H1975 were obtained from American Type Culture Collection (ATCC). The SK-OV-3 and NCI-H1975 cell lines were grown in recommended culture media, of which about 1×10^7 cells were suspended into HBSS and then injected subcutaneously to SCID mice. After the cells formed tumors, the tumors were removed and cut into tumor pieces. The tumor pieces were transplanted subcutaneously to SCID mice with trocars. The tumors were maintained by repeated transplantation in the same manner as described above to prepare tumors to be transplanted. […]

Test [2] relates to human lung cancer cells NCI-H1975. As to the kind of experiment: Anti-tumor test in mice transplanted subcutaneously with tumor (NCI-H1975). The note with it: NCI-H1975 s.c. in mice; 150 mg/kg tail vein three times at 7 day intervals. The procedure: as §1
In test [3] the test system is human breast cancer cells MC-19-JCK. As to the kind of experiment: Anti-tumor test in mice transplanted subcutaneously with tumor (MC-19-JCK). Particulars: MC-19-JCK s.c. in mice; administered once at 125 mg/kg. The method, then:
as §1

Test [4] has as its system human ovarian cancer cells TOGY-18. In words: Anti-tumor test in mice transplanted subcutaneously with tumor (TOGY-18). The note with it: TOGY-18 s.c. in mice; 125 mg/kg tail vein three times at 7 day intervals. The procedure: as §1
For test [5], the system named is human ovarian cancer cells OC-11-JCK/PTX. In words: Anti-tumor test in mice transplanted subcutaneously with tumor (OC-11-JCK/PTX). Particulars: OC-11-JCK/PTX s.c. in mice; 125 mg/kg tail vein three times at 7 day intervals. The method, then:
Human ovarian cancer cell lines OC-10-JCK, OC-11-JCK, and TOGY-18, and a human breast cancer cell line MC-19-JCK were obtained from Central Institute for Experimental Animals. Cryopreserved tumor pieces were thawed, and then OC-10-JCK, OC-11-JCK, and MC-19-JCK were transplanted subcutaneously to SCID mice, while TOGY-18 was transplanted subcutaneously to nude mice. After the tumors were grown, the tumors were removed and cut into tumor pieces. The tumor pieces were transplanted subcutaneously to SCID mice or nude mice with trocars. The tumors were maintained by repeated transplantation in the same manner as described above to prepare tumors to be transplanted. Human ovarian cancer cell lines ES-2, SK-OV-3, OV-90, and TOV-21G, and a human lung cancer cell line NCI-H1975 were obtained from American Type Culture Collection (ATCC). The SK-OV-3 and NCI-H1975 cell lines were grown in recommended culture media, of which about 1×10^7 cells were suspended into HBSS and then injected subcutaneously to SCID mice. After the cells formed tumors, the tumors were removed and cut into tumor pieces. The tumor pieces were transplanted subcutaneously to SCID mice with trocars. The tumors were maintained by repeated transplantation in the same manner as described above to prepare tumors to be transplanted. The OV-90 cell line was grown in a recommended culture medium, of which about 1×10^6 cells were suspended into HBSS and then injected subcutaneously to SCID mice. After the cells formed a tumor, the tumor was subjected to an anti-tumor test. The TOV-21G cell line was grown in a recommended culture medium, of which about 1×10^7 cells were suspended into HBSS and then injected subcutaneously to SCID mice. After the cells formed a tumor, the tumor was subjected to the anti-tumor test. The ES-2 cell line was grown in a recommended culture medium, suspended into HBSS, and then injected subcutaneously to nude mice. After the cells formed a tumor, the tumor was removed and cut into tumor pieces. The tumor pieces were transplanted subcutaneously to nude mice with a trocar. […]

Take `CC(C)c1cc(-c2n[nH]c(=O)n2-c2ccc3c(ccn3C)c2)c(O)cc1O` [Ganetespib, reference compound]: the “T/C % (lowest value from the beginning to the 21st day of administration)” value in test [1] is listed as 56.6%; in test [2], 44.0%; in test [3], 19.8%; in test [4], 67.7%; in test [5] it was 84.0%.
